Assay results: patent US20260070922A1, “PYRAZOLE AND IMIDAZOLE DERIVATIVES AS DUAL OREXIN AND KAPPA-OPIOID RECEPTORS MODULATORS COMPOSITION, METHODS FOR TREATING NEUROLOGICAL AND PSYCHIATRIC DISORDERS” (HAGER BIOSCIENCES, LLC, priority 2022, published 2026)

Key:
[1] = target: T1, Orexin type 1 (OX1R) receptor (Homo sapiens, UniProt O43613); assay: In vitro orexin antagonism assay: intracellular calcium measurement (FLIPR), orexin-A 3 nM as agonist; format: cell-based; conditions: for IC50: first value of IC50/Kb cell; for inhibition at 1 µM: read-out: OX1R, % Inh. @ 1 uM; for Kb: second value of IC50/Kb cell
T1 construct: expressed in transfected cells; host or cells: CHO cells (G418 selection)
T1 sequence (O43613 1-425): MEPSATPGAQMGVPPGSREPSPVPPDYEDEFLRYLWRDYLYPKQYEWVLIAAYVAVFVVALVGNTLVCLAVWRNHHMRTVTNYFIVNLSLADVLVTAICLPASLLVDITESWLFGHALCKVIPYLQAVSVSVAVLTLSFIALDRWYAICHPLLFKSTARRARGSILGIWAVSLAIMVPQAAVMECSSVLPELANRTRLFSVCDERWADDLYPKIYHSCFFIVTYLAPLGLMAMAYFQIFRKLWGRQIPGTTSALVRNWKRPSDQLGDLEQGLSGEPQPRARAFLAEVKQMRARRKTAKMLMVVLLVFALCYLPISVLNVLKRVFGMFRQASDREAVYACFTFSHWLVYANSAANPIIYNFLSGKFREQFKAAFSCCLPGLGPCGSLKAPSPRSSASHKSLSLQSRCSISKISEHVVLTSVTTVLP
In short: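 CHO cells expressing the human orexin receptor were loaded with 3 μM fluo-4 AM plus 5 mM probenecid, then exposed to antagonist for 120 min before 3 nM orexin-A (final) was added on a FLIPR.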

[2] = target: T2, human orexin-2 receptor (OX2R) (Homo sapiens, UniProt O43614); assay: as above; format: cell-based; conditions: for inhibition at 1 µM: read-out: OX2R, % Inh. @ 1 uM; for IC50: first value of IC50/Kb cell; for Kb: second value of IC50/Kb cell
T2 construct: expressed in transfected cells; host or cells: CHO cells (G418 selection)
T2 sequence (O43614 1-444): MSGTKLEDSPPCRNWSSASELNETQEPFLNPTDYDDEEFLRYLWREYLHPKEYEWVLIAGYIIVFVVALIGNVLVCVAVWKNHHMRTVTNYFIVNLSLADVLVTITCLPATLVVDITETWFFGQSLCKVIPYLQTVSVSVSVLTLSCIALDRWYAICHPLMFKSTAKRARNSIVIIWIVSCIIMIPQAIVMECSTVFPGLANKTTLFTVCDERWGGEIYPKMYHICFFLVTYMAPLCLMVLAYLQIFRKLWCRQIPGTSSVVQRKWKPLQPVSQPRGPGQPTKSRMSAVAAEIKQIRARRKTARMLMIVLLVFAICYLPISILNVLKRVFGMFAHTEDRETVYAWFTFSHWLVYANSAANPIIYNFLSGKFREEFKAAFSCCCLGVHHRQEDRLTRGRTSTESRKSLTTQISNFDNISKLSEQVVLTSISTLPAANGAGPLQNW
In short: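 CHO cells stably expressing human OX1R or OX2R, loaded with fluo-4 AM (3 μM, 5 mM probenecid) for 50 min at 37 °C, then 30 min at RT. Antagonist preincubated 120 min before 3 nM orexin-A; FLIPR fluorescence peak height vs vehicle gives IC50, possibly normalized to on-plate reference; geometric mean of repeats.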

[3] = target: T3, human k-opioid receptor (kOR) (Homo sapiens, UniProt P41145); assay: Human k-opioid (KOP) receptor (agonist radioligand [3H]U-69593) binding assay, transfected RBL cell membranes; conditions: for IC50: first value of IC50/Ki cell; for Ki: second value of IC50/Ki cell
T3 construct: expressed in transfected cells; host or cells: RBL cells (membrane homogenates)
Method: Human k-Opioid (KOP) Receptor (Agonist Radioligand) Binding Assay
Purpose: Evaluation of the affinity of compounds for the human k-opioid receptor in transfected RBL cells determined in a radioligand binding assay.
Experimental protocol: Cell membrane homogenates (about 80 μg protein) are incubated for 60 min at 22° C. with 0.5 nM [3H]U-69593 in the absence or presence of the test compound in a buffer containing 50 mM Tris-HCl (pH 7.4), 10 mM MgCl2 and 1 mM EDTA. Nonspecific binding is determined in the presence of 10 μM naloxone. Following incubation, the samples are filtered rapidly under vacuum through glass fiber filters ([…], Packard) presoaked with 0.3% PEI and rinsed several times with ice-cold 50 mM Tris-HCl using a 96-sample cell harvester (Unifilter, Packard). The filters are dried then counted for radioactivity in a scintillation counter (Topcount, Packard) using a scintillation cocktail (Microscint 0, Packard). The results are expressed as a percent inhibition of the control radioligand specific binding. The standard reference compound is U-50488, which is tested in each experiment at several concentrations to obtain a competition curve from which its IC50 is calculated.

T3 sequence (P41145 whole entry): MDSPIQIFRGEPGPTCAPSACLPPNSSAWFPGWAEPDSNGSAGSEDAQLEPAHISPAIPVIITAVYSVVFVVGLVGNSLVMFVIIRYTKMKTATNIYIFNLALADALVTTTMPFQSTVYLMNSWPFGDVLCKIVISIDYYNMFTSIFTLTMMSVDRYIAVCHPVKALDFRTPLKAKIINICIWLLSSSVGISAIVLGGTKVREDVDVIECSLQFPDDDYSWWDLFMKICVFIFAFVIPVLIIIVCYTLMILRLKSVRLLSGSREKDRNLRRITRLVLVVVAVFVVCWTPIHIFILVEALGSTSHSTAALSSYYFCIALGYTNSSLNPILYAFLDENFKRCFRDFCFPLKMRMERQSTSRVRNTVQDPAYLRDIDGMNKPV

| IC50 [1] | inhibition at 1 µM [1] | Kb [1] | inhibition at 1 µM [2] | Compound | also measured |
| --- | --- | --- | --- | --- | --- |
| 7 nM | 94.8% | 1 nM | 25.3% | O=C(c1c(-c2ccccc2)nn2c1COCC2)N1CCCC[C@H]1COc1ccc(C(F)(F)F)cn1 [Example 46] | inhibition at 1 µM ([3]; read-out: KOR % Inh. @ 1 uM): 38% |
| 5 nM | 91% | 1 nM | 28% | O=C(c1nn2cccnc2c1-c1ccccn1)N1CCC[C@H]1COc1ccc(C(F)(F)F)cn1 [Example 190] | – |
| 49 nM | 100% | 10 nM | 11% | O=C(c1c(-c2ncccn2)nn2ccccc12)N1CCC[C@H]1COc1ccc(C(F)(F)F)cn1 [Example 191] | – |
| 11 nM | 88% | 2 nM | 49% | O=C(c1c(-c2ccccn2)nn2ccccc12)N1CCC[C@H]1COc1ccc(C(F)(F)F)cn1 [Example 192] | – |
| 16 nM | 91% | 3 nM | 71% | O=C(c1nn2cccnc2c1-c1ccccn1)N1CCC[C@H]1Cn1ccc(-c2ccc(F)cn2)n1 [Example 193] | – |
| 15 nM | 100% | 3 nM | 29% | O=C(c1nn2c(c1-c1ccccn1)OCCC2)N1CCC[C@H]1Cn1ccc(-c2ccccn2)n1 [Example 195] | – |
| – | 64% | – | 8% | O=C(c1nn2c(c1-c1ccccn1)OCCC2)N1CCC[C@H]1Cc1nc(-c2ccccn2)no1 [Example 199] | – |
| 9 nM | 100% | 2 nM | 19% | O=C(c1nn2c(c1-c1ccccn1)OCCC2)N1CCC[C@H]1COc1ccc(C(F)(F)F)cn1 [Example 201] | – |
| 17 nM | 98% | 4 nM | 78% | O=C(c1c(-c2ncccn2)nn2ccccc12)N1CCC[C@H]1Cn1ccc(-c2ccc(F)cn2)n1 [Example 203] | – |
| – | 53% | – | 66% | O=C(c1c(-c2ncccn2)nn2ccccc12)N1CCC[C@H]1Cn1cc(-c2ccc(F)cn2)cn1 [Example 204] | – |
| 12 nM | 99% | 3 nM | 98% | O=C(c1c(-c2ccccn2)nn2ccccc12)N1CCC[C@H]1Cn1ccc(-c2ccc(F)cn2)n1 [Example 205] | IC50 [2]: 24 nM; Kb [2]: 4 nM |
| – | 67% | – | 83% | O=C(c1c(-c2ccccn2)nn2ccccc12)N1CCC[C@H]1Cn1cc(-c2ccc(F)cn2)cn1 [Example 206] | IC50 [2]: 62 nM; Kb [2]: 11 nM |
| 30 nM | 99% | 6 nM | 0% | O=C(c1nc2ccccn2c1-c1ccccn1)N1CCC[C@H]1Cn1ccc(-c2ccc(F)cn2)n1 [Example 207] | – |
| 300 nM | 75% | 63 nM | 4% | O=C(c1nc2ccccn2c1-c1ccccn1)N1CCC[C@H]1Cc1nc(-c2ccccn2)no1 [Example 209] | – |
| 190 nM | 85% | 40 nM | 12% | O=C(c1nc2ccccn2c1-c1ccccn1)N1CCC[C@H]1Cc1nc(-c2ccc(F)cn2)no1 [Example 210] | – |
| 19 nM | 100% | 4 nM | 28% | O=C(c1nn2c(c1-c1ccccn1)COCC2)N1CCC[C@H]1Cn1ccc(-c2ccccn2)n1 [Example 211] | – |
| 220 nM | 77% | 47 nM | 33% | O=C(c1nn2c(c1-c1ccccn1)COCC2)N1CCC[C@H]1Cn1cc(-c2ccccn2)cn1 [Example 213] | – |
| – | 64% | – | 12% | O=C(c1nc2n(c1-c1ccccn1)CCOC2)N1CCC[C@H]1Cn1ccc(-c2ccccn2)n1 [Example 215] | – |
| 160 nM | 70% | 34 nM | 24% | O=C(c1nc2n(c1-c1ccccn1)CCOC2)N1CCC[C@H]1Cn1ccc(-c2ccc(F)cn2)n1 [Example 216] | – |
| 210 nM | 76% | 45 nM | 57% | O=C(c1nc2n(c1-c1ccccn1)CCOC2)N1CCC[C@H]1Cn1cc(-c2ccccn2)cn1 [Example 217] | – |
| 120 nM | 79% | 25 nM | 74% | O=C(c1nc2n(c1-c1ccccn1)CCOC2)N1CCC[C@H]1Cn1cc(-c2ccc(F)cn2)cn1 [Example 218] | – |
| – | 25% | – | 0% | O=C(c1nc2n(c1-c1ccccn1)CCOC2)N1CCC[C@H]1Cc1nc(-c2ccccn2)no1 [Example 219] | – |
| – | 21% | – | 0% | O=C(c1nc2n(c1-c1ccccn1)CCOC2)N1CCC[C@H]1Cc1nc(-c2ccc(F)cn2)no1 [Example 220] | – |
| – | 56% | – | 0% | O=C(c1nn2c(c1-c1ccccn1)CCOC2)N1CCC[C@H]1Cc1nc(-c2ccccn2)no1 [Example 221] | – |
| – | 55% | – | 12% | O=C(c1nn2c(c1-c1ccccn1)CCOC2)N1CCC[C@H]1Cc1nc(-c2ccc(F)cn2)no1 [Example 222] | – |

| Compound | IC50 [1] | inhibition at 1 µM [1] | Kb [1] | inhibition at 1 µM [2] | also measured |
| --- | --- | --- | --- | --- | --- |
| O=C(c1c(-c2ccc(F)cc2)nn2ccccc12)N1CCC[C@H]1Cn1ccc(-c2ccc(F)cc2)n1 [Example 55] | 5 nM | – | 1 nM | – | OX1R, % Inh. @ 1 uM [1]: 100%; OX2R, % Inh. @ 1 uM [2]: 93%; IC50 [2]: 33 nM; Kb [2]: 5 nM; KOR % Inh. @ 1 uM [3]: 66%; IC50 [3]: 480 nM; Ki [3]: 260 nM |
| O=C(c1c(-c2ccc(F)cc2)nn2ccccc12)N1CCC[C@H]1Cn1ccc(-c2ccc(C(F)(F)F)cc2)n1 [Example 56] | 576 nM | – | 121 nM | – | OX1R, % Inh. @ 1 uM [1]: 59%; OX2R, % Inh. @ 1 uM [2]: 12%; KOR % Inh. @ 1 uM [3]: 76%; IC50 [3]: 450 nM; Ki [3]: 250 nM |
| O=C(c1c(-c2ccccc2)nn2c1COCC2)N1CCC[C@H]1Cn1ccc(-c2ccc(F)cc2)n1 [Example 57] | 65 nM | – | 14 nM | – | OX1R, % Inh. @ 1 uM [1]: 73%; OX2R, % Inh. @ 1 uM [2]: 52%; IC50 [2]: 773 nM; Kb [2]: 107 nM; KOR % Inh. @ 1 uM [3]: 76%; IC50 [3]: 440 nM; Ki [3]: 240 nM |
| O=C(c1nn2c(c1-c1ccccn1)COCC2)N1CCC[C@H]1Cn1ccc(-c2ccc(F)cn2)n1 [Example 196] | 24 nM | – | 5 nM | – | OX1R, % Inh. @ 1 uM [1]: 99%; OX2R, % Inh. @ 1 uM [2]: 39% |
| O=C(c1nn2c(c1-c1ccccn1)COCC2)N1CCC[C@H]1Cn1ccc(-c2ccc(F)cn2)n1 [Example 212] | 35 nM | – | 7 nM | – | OX1R, % Inh. @ 1 uM [1]: 96%; OX2R, % Inh. @ 1 uM [2]: 46% |
| O=C(c1nn2c(c1-c1ccccn1)COCC2)N1CCC[C@H]1Cn1cc(-c2ccc(F)cn2)cn1 [Example 214] | – | 66% | – | 32% | – |
| O=C(c1nn2c(c1-c1ccccn1)COCC2)N1CCC[C@H]1COc1ccc(C(F)(F)F)cn1 [Example 223] | 5 nM | – | 1 nM | – | OX1R, % Inh. @ 1 uM [1]: 97%; OX2R, % Inh. @ 1 uM [2]: 21% |
